Reference: the supplement of paper PMC10307832

Legend:
Experiment in all cases: relative viability (nuclei count vs DMSO), 5 days (fraction); higher = more cells survive
[1] = compound: C(C(=O)C(=O)O)Br [Bromopyruvate] + CS(=O)(=O)N1CCN(Cc2cc3nc(-c4cccc5[nH]ncc45)nc(N4CCOCC4)c3s2)CC1 [Pictilisib] (partner 1 µM)
Outline: (§1)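 Relative viability equals treated-well nuclei counts divided by vehicle-well nuclei counts. Counts came from 4× images of lung cancer cell lines grown in 1536-well plates for 5 days after pin-tool dosing on the day after seeding. Dosing used one drug alone or a fixed anchor-drug dose plus five library-drug doses (not always all listed) in √10 steps, and values are medians of duplicate plates.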

[2] = compound: CC(O)(CS(=O)(=O)c1ccc(F)cc1)C(=O)Nc1ccc(C#N)c(C(F)(F)F)c1 [Bicalutamide] + COc1cccc2cc(-c3nc([C@H]4CC[C@H](C(=O)O)CC4)n4ncnc(N)c34)[nH]c12 [OSI-027] (partner 0.5 µM)
Outline: as §1

[3] = compound: C(C(=O)C(=O)O)Br [Bromopyruvate] + CCNC(=O)c1noc(-c2cc(C(C)C)c(O)cc2O)c1-c1ccc(CN2CCOCC2)cc1 [Luminespib] (partner 0.01 µM)
Outline: as §1

[4] = compound: CC(O)(CS(=O)(=O)c1ccc(F)cc1)C(=O)Nc1ccc(C#N)c(C(F)(F)F)c1 [Bicalutamide] + NC(=O)Nc1cc(-c2cccc(F)c2)sc1C(=O)N[C@H]1CCCNC1 [AZD7762] (partner 0.2 µM)
Outline: as §1

Cell Line	relative viability ([1]; first compound 1 µM)	relative viability ([1]; first compound 3.162 µM)	relative viability ([1]; first compound 10 µM)	relative viability ([1]; first compound 31.62 µM)	relative viability ([1]; first compound 100 µM)	relative viability ([2]; first compound 0.08 µM)	relative viability ([2]; first compound 0.253 µM)	relative viability ([2]; first compound 0.8 µM)	relative viability ([2]; first compound 2.53 µM)	relative viability ([3]; first compound 1 µM)	relative viability ([3]; first compound 3.162 µM)	relative viability ([3]; first compound 10 µM)	relative viability ([3]; first compound 31.62 µM)	relative viability ([3]; first compound 100 µM)	relative viability ([4]; first compound 0.8 µM)	relative viability ([4]; first compound 2.53 µM)	relative viability ([4]; first compound 0.08 µM)	relative viability ([4]; first compound 0.253 µM)
NCI-H1563	0.657	0.657	0.535	0.626	0.697	0.764	0.698	0.804	0.65	0.482	0.559	0.489	0.466	0.532				
NCI-H1623						0.43	0.447	0.487	0.531	0.545	0.523	0.747	0.489	0.504				
NCI-H1648							0.299	0.29	0.225						0.736	0.686		
NCI-H1650	0.545	0.532	0.567	0.651	0.512	0.71	0.552	0.744	0.649	0.19	0.224	0.186	0.177	0.182				
NCI-H1703	0.238	0.226	0.256	0.271	0.269										0.162	0.174	0.123	0.117
NCI-H2009	0.764	0.831	0.742	0.709	0.613	0.756	0.641	0.74	0.347	1	1.09	0.953	1.01	0.708				
NCI-H2023	0.236	0.237	0.221	0.209	0.25	0.44	0.338	0.427	0.271	0.77	0.883	0.789	0.65	0.901				
NCI-H2228	0.349	0.37	0.402	0.416	0.635	0.517	0.756	0.811	0.603	0.182	0.144	0.148	0.145	0.193				
NCI-H2342						0.629	0.593	0.63	0.551	0.756	0.775	0.661	0.57	0.531	0.528	0.568	0.553	0.478
SK-LU-1	0.545	0.65	0.616	0.551	0.53	0.371	0.39	0.358	0.276	0.213	0.195	0.208	0.194	0.215				
SK-MES-1	0.356	0.32	0.427	0.373	0.321	0.601	0.607	0.665	0.491	0.615	0.882	0.948	0.805	0.881				
SW 900						0.498	0.531	0.572	0.347	0.16	0.173	0.197	0.166	0.21	0.745	0.586	0.707	0.645
SW 1573	0.463	0.438	0.46	0.521	0.303	0.629		0.734	0.656	0.214	0.212	0.562	0.135	0.0625				
